Consider 4 compounds from ChEMBL document CHEMBL4622855, “Secondary metabolites from Isodon ternifolius (D. Don) Kudo and their anticancer activity as DNA topoisomerase IB and Tyrosyl-DNA phosphodiesterase 1 inhibitors” (Bioorg Med Chem, 2020).

In one experiment the test system is HCT-116. Kind of experiment: Cytotoxicity against human HCT116 cells assessed as growth inhibition after 72 hrs by MTT assay. Type of experiment: functional. The following applies: HCT-116, 72 h. (In general: Tetrazolium assays rely on reduction of a dye to a coloured formazan, in cell work by metabolically active cells.)
In experiment [1] the test system is MCF7. Description: Synergistic antiproliferative activity against human MCF7 cells assessed as combination index at 50 to 100 uM after 72 hrs in presence of TOP1 inhibitor topotecan by MTT assay. In kind it is functional.
Experiment [2] concerns MCF7. Kind of experiment: Cytotoxicity against human MCF7 cells assessed as reduction in cell viability after 72 hrs by MTT assay. In kind it is functional. The following applies: MCF7, 72 h.
Experiment [3] addresses T1, DNA topoisomerase I (Bos taurus) (UniProt F1MN93).
T1 sequence (whole entry): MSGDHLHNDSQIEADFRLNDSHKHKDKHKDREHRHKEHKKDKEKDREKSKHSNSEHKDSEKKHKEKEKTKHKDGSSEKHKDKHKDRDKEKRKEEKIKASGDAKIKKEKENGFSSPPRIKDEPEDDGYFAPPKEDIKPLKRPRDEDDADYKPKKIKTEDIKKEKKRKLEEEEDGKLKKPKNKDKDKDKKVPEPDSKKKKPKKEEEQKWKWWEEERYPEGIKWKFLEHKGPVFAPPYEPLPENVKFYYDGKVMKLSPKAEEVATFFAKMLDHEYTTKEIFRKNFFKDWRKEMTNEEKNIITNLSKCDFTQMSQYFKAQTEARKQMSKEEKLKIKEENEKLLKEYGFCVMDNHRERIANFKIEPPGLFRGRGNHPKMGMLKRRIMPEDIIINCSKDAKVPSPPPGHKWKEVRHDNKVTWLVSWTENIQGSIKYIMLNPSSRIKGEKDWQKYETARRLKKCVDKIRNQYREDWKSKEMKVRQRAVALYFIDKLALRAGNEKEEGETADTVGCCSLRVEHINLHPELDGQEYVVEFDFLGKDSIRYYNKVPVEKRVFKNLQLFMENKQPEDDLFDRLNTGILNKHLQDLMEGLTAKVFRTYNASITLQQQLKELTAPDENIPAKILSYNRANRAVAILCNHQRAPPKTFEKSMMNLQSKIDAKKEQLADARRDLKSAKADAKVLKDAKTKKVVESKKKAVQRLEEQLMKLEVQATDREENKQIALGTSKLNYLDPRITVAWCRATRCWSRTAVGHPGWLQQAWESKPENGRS
Kind of experiment: Inhibition of calf thymus Top1 assessed as reduction in supercoiled pBR322 DNA relaxation at 100 uM measured after 30 mins by agarose gel electrophoresis relative to camptothecin.

The test system of another experiment is A549. Kind of experiment: Cytotoxicity against human A549 cells assessed as growth inhibition after 72 hrs by MTT assay. The following applies: A549, 72 h. In kind it is functional.
In experiment [4] the target is Tyrosyl-DNA phosphodiesterase 1 (Homo sapiens, UniProt Q9NUW8). Kind of experiment: Inhibition of TDP1 (unknown origin) expressed in Escherichia coli BL21 (DE3) using 5'-FAM-AGGATCTAAAAGACTT-BHQ-3' as substrate preincubated for 30 mins followed by substrate addition by fluorescence assay.
Sequence of Tyrosyl-DNA phosphodiesterase 1 (Q9NUW8 whole entry): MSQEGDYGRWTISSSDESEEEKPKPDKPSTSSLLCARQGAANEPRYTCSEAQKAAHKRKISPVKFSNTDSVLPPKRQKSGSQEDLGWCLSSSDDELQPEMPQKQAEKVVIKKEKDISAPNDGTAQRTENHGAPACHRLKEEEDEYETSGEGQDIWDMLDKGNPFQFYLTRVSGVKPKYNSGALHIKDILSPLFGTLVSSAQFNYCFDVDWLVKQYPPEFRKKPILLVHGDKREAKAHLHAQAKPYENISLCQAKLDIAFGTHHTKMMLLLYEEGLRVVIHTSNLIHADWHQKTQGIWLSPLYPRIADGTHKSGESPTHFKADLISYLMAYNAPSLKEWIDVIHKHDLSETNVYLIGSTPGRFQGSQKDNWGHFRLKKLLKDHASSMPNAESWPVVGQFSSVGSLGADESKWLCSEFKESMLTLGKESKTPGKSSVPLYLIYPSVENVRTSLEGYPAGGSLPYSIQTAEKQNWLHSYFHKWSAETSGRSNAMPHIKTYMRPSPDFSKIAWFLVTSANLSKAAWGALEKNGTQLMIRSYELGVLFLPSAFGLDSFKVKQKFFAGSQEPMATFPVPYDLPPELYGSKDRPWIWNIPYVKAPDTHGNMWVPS
In experiment [5] the test system is MCF7. Kind of experiment: Synergistic antiproliferative activity against human MCF7 cells assessed as combination index at 12.5 to 50 uM after 72 hrs in presence of TOP1 inhibitor topotecan by MTT assay. Type of experiment: functional.
In experiment [6] the target is T1, DNA topoisomerase I (Bos taurus). Description: Inhibition of calf thymus Top1-mediated supercoiled pBR322 DNA cleavage assessed as nicked DNA content at 25 uM measured after 30 mins by ethidium bromide staining agarose gel electrophoresis. The arrangement: scale not given: the % may be the effect or the level left.
Experiment [7] has the same target. Kind of experiment: Inhibition of calf thymus Top1-mediated supercoiled pBR322 DNA cleavage assessed as nicked DNA content at 50 uM measured after 30 mins by ethidium bromide staining agarose gel electrophoresis. Set-up: scale not given: the % may be the effect or the level left.
Experiment [8] shares this target. Kind of experiment: Inhibition of calf thymus Top1 assessed as reduction in supercoiled pBR322 DNA relaxation measured after 30 mins by agarose gel electrophoresis.
Experiment [9] has the same target. Kind of experiment: Inhibition of calf thymus Top1 assessed as reduction in Top1-supercoiled pBR322 DNA covalent cleavage formation at 25 to 50 uM measured after 30 mins by electrophoretic mobility shift assay.
Experiment [10] relates to MCF7. Kind of experiment: Induction of DNA damage in human MCF7 cells assessed as increase in gammaH2AX foci formation up to 9 uM measured after 12 hrs by immunofluorescence assay. Type of experiment: functional, cell-based.
In experiment [11] the test system is MCF7. Kind of experiment: Induction of DNA damage in human MCF7 cells assessed as increase in gammaH2AX foci formation at 0.5 uM measured after 12 hrs by immunofluorescence assay. Type of experiment: functional, cell-based.

Each structure is given as a SMILES string. Activity calls are given as the source filed them. No cut-off for these calls is given here. A value given as a limit tells only on which side of the number the result lay.

Regarding `O=C(/C=C/c1ccc(O)cc1)c1ccc(O)cc1O` [ISOLIQUIRITIGENIN], the GI50 (usually the concentration at which growth is held to half of that of the control) in the experiment with HCT-116 was 39 µM; with MCF7 [2] it was over 100 µM; in the experiment with A549 it was 87 µM. In addition, in the experiment on MCF7 [1], the CI is on record as under 1. Further, the inhibition (usually the change of the read-out against control, counted positive when it falls) in experiment [3] fell in the range of 30 to 59%. Besides, in [4], the IC50 (usually the concentration that inhibits the measured activity by half) was 55 µM.
`COc1cc(O)ccc1/C=C/C(=O)c1ccc(O)cc1` [ECHINATIN]: the GI50 was 64 µM with HCT-116, 43 µM in the experiment on MCF7 [2] and 36 µM in the experiment on A549. Also, the inhibition in experiment [3] was in the range of 30 to 59%. The compound also yielded an IC50 in experiment [4] of 45 µM. Moreover, in the experiment with MCF7 [5], the CI is recorded as under 0.3.
As for `C[C@H]1[C@H](C)CC[C@]2(C(=O)O)CC[C@]3(C)C(=CC[C@@H]4[C@@]5(C)CCC(=O)C(C)(C)[C@@H]5CC[C@]43C)[C@H]12` [URSONIC ACID], the Activity is 11% in experiment [6] and 9% in [7]. Moreover, the 50% growth inhibitory concentration (GI50) is 5.3 µM in the experiment on HCT-116, 12 µM in the experiment with MCF7 [2] and 57 µM in the experiment on A549. In addition, the results for the inhibition entry in experiment [8] and in [3] were “Dose-dependent effect” and over 90%, respectively. Also, the inhibition entry in [9] is “Active”. Further, the outcome with MCF7 [10] was inactive.
Take `CC[C@@]1(O)C(=O)OCc2c1cc1n(c2=O)Cc2cc3ccccc3nc2-1`: the Activity in [6] came out at 16%; in experiment [7] it was 18%. Also, in the experiment on MCF7 [11], the outcome was Active.
